Test results published in US12577206B2 (BRISTOL-MYERS SQUIBB COMPANY, priority 2020, dated 2026).

What follows are molecules tested against T1, human FPR1 (Homo sapiens, UniProt P21462) (assay: FPR1 cyclic adenosine monophosphate (cAMP) assay). Settings: CHO cells overexpressing human FPR1; forskolin 10 μM; inhibition of cAMP production; HTRF; read-out: hFPR1 cAMP2 EC50.
T1 sequence (P21462 1-350): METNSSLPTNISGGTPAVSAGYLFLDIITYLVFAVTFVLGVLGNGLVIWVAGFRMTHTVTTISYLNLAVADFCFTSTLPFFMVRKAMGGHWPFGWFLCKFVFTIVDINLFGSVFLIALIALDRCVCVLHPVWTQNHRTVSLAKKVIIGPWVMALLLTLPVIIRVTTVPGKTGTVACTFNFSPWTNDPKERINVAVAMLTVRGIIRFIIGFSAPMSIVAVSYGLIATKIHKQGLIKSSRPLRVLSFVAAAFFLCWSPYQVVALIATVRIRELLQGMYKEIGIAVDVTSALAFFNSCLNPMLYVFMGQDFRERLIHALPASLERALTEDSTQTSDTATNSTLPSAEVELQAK
Assay type: cell-based
Text: (§1) N-formyl peptide receptors (FPRs) are a family of chemo attractant receptors that facilitate leukocyte response during inflammation. FPRs belong to the seven-transmembrane G protein-coupled receptor superfamily and are linked to inhibitory G-proteins (Gi). Three family members (FPR1, FPR2 and FPR3) have been identified in humans and are predominantly found in myeloid cells with varied distribution and have also been reported in multiple organs and tissues. After agonist binding, the FPRs activate a multitude of physiological pathways, such as intra cellular signaling transduction, Ca^2+ mobilization and transcription. The family interacts with a diverse set of ligands that includes proteins, polypeptides and fatty acid metabolites which activate both pro-inflammatory and pro-resolution downstream responses. FPR2 and FPR1 Cyclic Adenosine Monophosphate (cAMP) Assays were used to measure the in vitro activity of the compounds disclosed in this application.
(§2) FPR2 and FPR1 Cyclic Adenosine Monophosphate (cAMP) Assays. A mixture of forskolin (5 μM final for FPR2 or 10 μM final for FPR1) and IBMX (200 μM final) were added to 384-well Proxiplates (Perkin-Elmer) pre-dotted with test compounds in DMSO (1% final) at final concentrations in the range of 0.020 nM to 100 μM. Chinese Hamster Ovary cells (CHO) overexpressing human FPR1 or human FPR2 receptors were cultured in F-12 (Ham's) medium supplemented with 10% qualified FBS, 250 μg/mL zeocin and 300 μg/mL hygromycin (Life Technologies). Reactions were initiated by adding 2,000 human FPR2 cells per well or 4,000 human FPR1 cells per well in Dulbecco's PBS (with calcium and magnesium) (Life Technologies) supplemented with 0.1% BSA (Perkin-Elmer). The reaction mixtures were incubated for 30 min at rt. The level of intracellular cAMP was determined using the HTRF HiRange cAMP assay reagent kit (Cisbio) according to manufacturer's instruction. Solutions of cryptate conjugated anti-cAMP and d2 flurorophore-labeled cAMP were made in a supplied lysis buffer separately. Upon completion of the reaction, the cells were lysed with equal volume of the d2-cAMP solution and anti-cAMP solution. […] The potency and activity of a compound to inhibit cAMP production was then determined by fitting to a 4-parametric logistic equation from a plot of cAMP level versus compound concentrations.

| EC50 | SMILES |
| --- | --- |
| > 10000 nM | COc1cc(F)c(-c2c(NC(=O)c3ccc(OC(F)F)cc3)c(=O)n(-c3nc(N(CCO)CCO)ccc3C(F)(F)F)n2C)c(F)c1 [Example 139, N-(2-{6-[bis(2-hydroxyethyl)amino]-3-(trifluoromethyl)pyridin-2-yl}-5-(2,6-difluoro-4-methoxyphenyl)-1-methyl-3-oxo-2,3-dihydro-1H-pyrazol-4-yl)-4-(difluoromethoxy)benzamide] |
| > 10000 nM | COc1cc(OCC(C)(CO)CO)nc(-n2c(=O)c(NC(=O)c3ccc(OC(F)F)cc3)c(-c3c(F)cc(OC)cc3F)n2C)c1 [Example 325, N-(5-(2,6-Difluoro-4-methoxyphenyl)-2-(6-(3-hydroxy-2-(hydroxymethyl)-2-methylpropoxy)-4-methoxypyridin-2-yl)-1-methyl-3-oxo-2,3-dihydro-1H-pyrazol-4-yl)-4-(difluoromethoxy)benzamide] |
| 25 nM | COc1cc(F)c(-c2c(NC(=O)c3ccc(OC(F)F)cc3)c(=O)n(-c3cc(OC(C)C)cc(OCCO)n3)n2C)c(F)c1 [Example 378, N-(5-(2,6-Difluoro-4-methoxyphenyl)-2-(6-(2-hydroxyethoxy)-4-isopropoxypyridin-2-yl)-1-methyl-3-oxo-2,3-dihydro-1H-pyrazol-4-yl)-4-(difluoromethoxy)benzamide] |

The molecules below were run against T2, human FPR2 (Homo sapiens, UniProt P25090) (assay: FPR2 cyclic adenosine monophosphate (cAMP) assay). Settings: CHO cells overexpressing human FPR2; forskolin 5 μM; inhibition of cAMP production; HTRF; read-out: hFPR2 cAMP2 EC50.
T2 sequence (P25090 1-351): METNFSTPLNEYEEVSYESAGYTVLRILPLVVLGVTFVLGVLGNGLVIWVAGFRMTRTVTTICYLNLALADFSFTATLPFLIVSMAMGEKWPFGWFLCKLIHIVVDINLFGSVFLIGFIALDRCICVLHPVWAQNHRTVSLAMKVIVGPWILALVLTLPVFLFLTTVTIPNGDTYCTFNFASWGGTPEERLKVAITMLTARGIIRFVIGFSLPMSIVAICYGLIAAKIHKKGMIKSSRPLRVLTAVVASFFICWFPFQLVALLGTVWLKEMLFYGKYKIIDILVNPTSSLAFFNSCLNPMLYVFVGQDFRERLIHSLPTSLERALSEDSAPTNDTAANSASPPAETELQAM
Assay type: cell-based
Text: as §1, §2

| SMILES | EC50 |
| --- | --- |
| COc1cc(F)c(-c2c(NC(=O)c3ccc(OC(F)F)cc3)c(=O)n(-c3nc(N(CCO)CCO)ccc3C(F)(F)F)n2C)c(F)c1 [Example 139, N-(2-{6-[bis(2-hydroxyethyl)amino]-3-(trifluoromethyl)pyridin-2-yl}-5-(2,6-difluoro-4-methoxyphenyl)-1-methyl-3-oxo-2,3-dihydro-1H-pyrazol-4-yl)-4-(difluoromethoxy)benzamide] | 3 nM |
| COc1cc(F)c(-c2c(NC(=O)c3ccc(OC(F)F)cc3)c(=O)n(-c3cccc(N4CCN(CCO)CC4)n3)n2C)c(F)c1 [Example 107, N-[5-(2,6-difluoro-4-methoxyphenyl)-2-{6-[4-(2-hydroxyethyl)piperazin-1-yl]pyridin-2-yl}-1-methyl-3-oxo-2,3-dihydro-1H-pyrazol-4-yl]-4-(difluoromethoxy)benzamide] | 5 nM |
| COc1cc(N2CCN(C)CC2)nc(-n2c(=O)c(NC(=O)c3ccc(OC(F)F)cc3)c(-c3c(F)cc(OC)cc3F)n2C)c1 [Example 101, N-[5-(2,6-difluoro-4-methoxyphenyl)-2-[4-methoxy-6-(4-methylpiperazin-1-yl)pyridin-2-yl]-1-methyl-3-oxo-2,3-dihydro-1H-pyrazol-4-yl]-4-(difluoromethoxy)benzamide] | 3 nM |
| COc1cc(N2C3CCC2CN(C)C3)nc(-n2c(=O)c(NC(=O)c3ccc(OC(F)F)cc3)c(-c3c(F)cc(OC)cc3F)n2C)c1 [Example 105, N-[5-(2,6-difluoro-4-methoxyphenyl)-2-(4-methoxy-6-{3-methyl-3,8-diazabicyclo[3.2.1]octan-8-yl}pyridin-2-yl)-1-methyl-3-oxo-2,3-dihydro-1H-pyrazol-4-yl]-4-(difluoromethoxy)benzamide] | 1 nM |
| COc1cc(OC)cc(-n2c(=O)c(NC(=O)c3ccc(OC(F)F)cc3)c(-c3c(F)cc(OC)cc3F)n2C)c1 [Example 108] | 3 nM |
| COc1cc(F)c(-c2c(NC(=O)c3ccc(OC(F)F)cc3)c(=O)n(-c3cc(C(F)F)ccn3)n2C)c(F)c1 [Example 76, N-[5-(2,6-difluoro-4-methoxyphenyl)-2-[4-(difluoromethyl)pyridin-2-yl]-1-methyl-3-oxo-2,3-dihydro-1H-pyrazol-4-yl]-4-(difluoromethoxy)benzamide] | 12 nM |
| COc1cc(N2CC(OC(C)C)C2)nc(-n2c(=O)c(NC(=O)c3ccc(OC(F)F)cc3)c(-c3c(F)cc(OC)cc3F)n2C)c1 [Example 106, N-[5-(2,6-difluoro-4-methoxyphenyl)-2-{4-methoxy-6-[3-(propan-2-yloxy)azetidin-1-yl]pyridin-2-yl}-1-methyl-3-oxo-2,3-dihydro-1H-pyrazol-4-yl]-4-(difluoromethoxy)benzamide] | 5 nM |
| COc1cc(N2CCC(F)(F)C2)nc(-n2c(=O)c(NC(=O)c3ccc(OC(F)F)cc3)c(-c3c(F)cc(OC)cc3F)n2C)c1 [Example 99, N-[5-(2,6-difluoro-4-methoxyphenyl)-2-[6-(3,3-difluoropyrrolidin-1-yl)-4-methoxypyridin-2-yl]-1-methyl-3-oxo-2,3-dihydro-1H-pyrazol-4-yl]-4-(difluoromethoxy)benzamide] | 4 nM |
| COc1cc(F)c(-c2c(NC(=O)c3ccc(OC(F)F)cc3)c(=O)n(-c3cccc(N4C[C@@H](C)N(C)[C@@H](C)C4)n3)n2C)c(F)c1 [Example 103, N-[5-(2,6-difluoro-4-methoxyphenyl)-1-methyl-3-oxo-2-{6-[(3R,5S)-3,4,5-trimethylpiperazin-1-yl]pyridin-2-yl}-2,3-dihydro-1H-pyrazol-4-yl]-4-(difluoromethoxy)benzamide] | 1 nM |

Other lines, results leading:

| EC50 | SMILES |
| --- | --- |
| 3 nM | COc1cc(OCC(C)(CO)CO)nc(-n2c(=O)c(NC(=O)c3ccc(OC(F)F)cc3)c(-c3c(F)cc(OC)cc3F)n2C)c1 [Example 325, N-(5-(2,6-Difluoro-4-methoxyphenyl)-2-(6-(3-hydroxy-2-(hydroxymethyl)-2-methylpropoxy)-4-methoxypyridin-2-yl)-1-methyl-3-oxo-2,3-dihydro-1H-pyrazol-4-yl)-4-(difluoromethoxy)benzamide] |
| 20 nM | COc1cc(N2CCCC2)nc(-n2c(=O)c(NC(=O)c3ccc(OC(F)F)cc3)c(-c3c(F)cc(OC)cc3F)n2C)c1 [Example 91, N-(5-(2,6-difluoro-4-methoxyphenyl)-2-(4-methoxy-6-(pyrrolidin-1-yl)pyridin-2-yl)-1-methyl-3-oxo-2,3-dihydro-1H-pyrazol-4-yl)-4-(difluoromethoxy)benzamide] |
| 1 nM | COc1cc(C2CCNCC2)nc(-n2c(=O)c(NC(=O)c3ccc(OC(F)F)cc3)c(-c3c(F)cc(OC)cc3F)n2C)c1 [Example 367, N-(5-(2,6-Difluoro-4-methoxyphenyl)-2-(4-methoxy-6-(piperidin-4-yl)pyridin-2-yl)-1-methyl-3-oxo-2,3-dihydro-1H-pyrazol-4-yl)-4-(difluoromethoxy)benzamide] |
| 8 nM | COc1cc(N2CC[C@@H](O)C2)nc(-n2c(=O)c(NC(=O)c3ccc(OC(F)F)cc3)c(-c3c(F)cc(OC)cc3F)n2C)c1 [Example 95, N-[5-(2,6-difluoro-4-methoxyphenyl)-2-{6-[(3R)-3-hydroxypyrrolidin-1-yl]-4-methoxypyridin-2-yl}-1-methyl-3-oxo-2,3-dihydro-1H-pyrazol-4-yl]-4-(difluoromethoxy)benzamide] |
| 8 nM | COc1cc(CO)nc(-n2c(=O)c(NC(=O)c3ccc(OC(F)F)cc3)c(-c3c(F)cc(OC)cc3F)n2C)c1 [Example 90, N-[5-(2,6-difluoro-4-methoxyphenyl)-2-[6-(hydroxymethyl)-4-methoxypyridin-2-yl]-1-methyl-3-oxo-2,3-dihydro-1H-pyrazol-4-yl]-4-(difluoromethoxy)benzamide] |
| 6 nM | COc1cc(NCCO)nc(-n2c(=O)c(NC(=O)c3ccc(OC(F)F)cc3)c(-c3c(F)cc(OC)cc3F)n2C)c1 [Example 94, N-[5-(2,6-difluoro-4-methoxyphenyl)-2-{6-[(2-hydroxyethyl)amino]-4-methoxypyridin-2-yl}-1-methyl-3-oxo-2,3-dihydro-1H-pyrazol-4-yl]-4-(difluoromethoxy)benzamide] |
| 7 nM | COc1cc(N2CC(C)(O)C2)nc(-n2c(=O)c(NC(=O)c3ccc(OC(F)F)cc3)c(-c3c(F)cc(OC)cc3F)n2C)c1 [Example 96, N-[5-(2,6-difluoro-4-methoxyphenyl)-2-[6-(3-hydroxy-3-methylazetidin-1-yl)-4-methoxypyridin-2-yl]-1-methyl-3-oxo-2,3-dihydro-1H-pyrazol-4-yl]-4-(difluoromethoxy)benzamide] |
| 6 nM | COc1cc(N2CC[C@H](F)C2)nc(-n2c(=O)c(NC(=O)c3ccc(OC(F)F)cc3)c(-c3c(F)cc(OC)cc3F)n2C)c1 [Example 98, N-[5-(2,6-difluoro-4-methoxyphenyl)-2-{6-[(3S)-3-fluoropyrrolidin-1-yl]-4-methoxypyridin-2-yl}-1-methyl-3-oxo-2,3-dihydro-1H-pyrazol-4-yl]-4-(difluoromethoxy)benzamide] |
